In brackets after ≈: the same amount, converted by molar mass.
Columns and labels:
Assay type in all cases: cell-based
Aspergillus terreus AT4 [1] = assay: MIC, YAG medium; conditions: 24 h at 35° C, MIC banded into grades; for MIC: Aspergillus terreus, read-out: MIC grade, A. terreus
Outline: (§1)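 OD 485 nm read-out after 24 h at 35° C; MIC = lowest concentration inhibiting growth >70% vs drug-free control, in mg/L. Inoculum 1−2×10^4 cfu/mL in YAG medium; drug range 50-0.05 mg/L, retested at 0.5-0.0005 mg/L when needed.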

[2] = tested on: Aspergillus fumigatus AF210; assay: MIC, YAG medium; conditions: 24 h at 35° C, MIC banded into grades; for MIC: Aspergillus fumigatus, read-out: MIC grade, A. fumigatus 210
Outline: as §1

Aspergillus niger [3] = assay: MIC, YAG medium; conditions: 24 h at 35° C, MIC banded into grades; for MIC: Aspergillus niger, read-out: MIC grade, A. niger
Outline: as §1

[4] = tested on: Aspergillus fumigatus AF293; assay: MIC, YAG medium; conditions: 24 h at 35° C, MIC banded into grades; for MIC: Aspergillus fumigatus, read-out: MIC grade, A. fumigatus
Outline: as §1

Aspergillus flavus [5] = assay: MIC, YAG medium; conditions: 24 h at 35° C, MIC banded into grades; for MIC: Aspergillus flavus, 24 h, read-out: MIC grade, A. flavus
Outline: as §1

Aspergillus terreus AT49 [6] = assay: MIC, YAG medium; conditions: 24 h at 35° C, MIC banded into grades; for MIC: Aspergillus terreus, read-out: MIC grade, A. terreus 49
Outline: as §1

Aspergillus terreus AT4 [7] = assay: MIC, RPMI medium; conditions: for MIC: Aspergillus terreus, AT4, MIC banded into grades, read-out: MIC grade, A. terreus; for MIC grade, A. terreus: MIC banded into grades
Outline: (§2)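 Broth microdilution in RPMI with 2% glucose, 0.135 M MOPS pH 7.0; compounds as doubling dilutions, 50-0.05 mg/L, inoculum 1−2×10^4 cfu/mL. Incubated 24-48 h at 35° C; growth by OD 485 nm. MIC is lowest concentration giving >80% growth inhibition versus drug-free control.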

[8] = tested on: Aspergillus fumigatus AF210; assay: MIC, RPMI medium; conditions: for MIC: Aspergillus fumigatus, AF210, MIC banded into grades, read-out: MIC grade, A. fumigatus 210; for MIC grade, A. fumigatus 210: MIC banded into grades
Outline: as §2

Aspergillus niger [9] = assay: MIC, RPMI medium; conditions: MIC banded into grades; for MIC: Aspergillus niger, read-out: MIC grade, A. niger
Outline: as §2

[10] = tested on: Aspergillus fumigatus AF293; assay: MIC, RPMI medium; conditions: for MIC: Aspergillus fumigatus, AF293, MIC banded into grades, read-out: MIC grade, A. fumigatus; for MIC grade, A. fumigatus: MIC banded into grades
Outline: as §2

Aspergillus flavus [11] = assay: MIC, RPMI medium; conditions: MIC banded into grades; for MIC: Aspergillus flavus, read-out: MIC grade, A. flavus
Outline: as §2

Aspergillus terreus AT49 [12] = assay: MIC, RPMI medium; conditions: for MIC: Aspergillus terreus, AT49, MIC banded into grades, read-out: MIC grade, A. terreus 49; for MIC grade, A. terreus 49: MIC banded into grades
Outline: as §2

| MIC (Aspergillus terreus AT4 [1]) [µg/mL] | MIC [2] [µg/mL] | MIC (Aspergillus niger [3]) [µg/mL] | MIC [4] [µg/mL] | MIC (Aspergillus flavus [5]) [µg/mL] | MIC (Aspergillus terreus AT49 [6]) [µg/mL] | MIC (Aspergillus terreus AT4 [7]) [µg/mL] | MIC [8] [µg/mL] | MIC (Aspergillus niger [9]) [µg/mL] | MIC [10] [µg/mL] | MIC (Aspergillus flavus [11]) [µg/mL] | MIC (Aspergillus terreus AT49 [12]) [µg/mL] | Compound | also measured |
| --- | --- | --- | --- | --- | --- | --- | --- | --- | --- | --- | --- | --- | --- |
| < 1 | < 1 | < 1 | < 1 | < 1 | < 1 | < 1 | < 1 | < 1 | < 1 | < 1 | < 1 | Cc1cc(-c2ccccc2)c(C(=O)C(=O)Nc2ccc(N3CCN(c4ccc(CN5CCOCC5)cn4)CC3)cc2)n1C [Example 120, 2-(1,5-Dimethyl-3-phenyl-1H-pyrrol-2-yl)-N-{4-[4-(5-morpholin-4-ylmethyl-pyridin-2-yl)-piperazin-1-yl]-phenyl}-2-oxo-acetamide] | – |
| – | – | – | – | – | – | – | – | – | – | – | – | COCCn1c(C)cc(-c2ccccc2)c1C(=O)C(=O)Nc1ccc(N2CCCCC2)c(F)c1 [Example 119, N-(3-Fluoro-4-piperdin-1-yl-phenyl)-2-[1-(2-methoxy-ethyl)-5-methyl-3-phenyl-1H-pyrrol-2-yl]-2-oxo-acetamide] | MIC grade, A. terreus (Aspergillus terreus AT4 [1]): 3 (A grade of 3 represents an MIC of less than 1 mg/L); MIC grade, A. fumigatus 210 [2]: 3 (A grade of 3 represents an MIC of less than 1 mg/L); MIC grade, A. niger (Aspergillus niger [3]): 3 (A grade of 3 represents an MIC of less than 1 mg/L); MIC grade, A. fumigatus [4]: 3 (A grade of 3 represents an MIC of less than 1 mg/L); MIC grade, A. flavus (Aspergillus flavus [5]): 2 (A grade of 2 represents an MIC of from 1 to 10 mg/L); MIC grade, A. terreus 49 (Aspergillus terreus AT49 [6]): 3 (A grade of 3 represents an MIC of less than 1 mg/L); MIC grade, A. terreus (Aspergillus terreus AT4 [7]): 3 (A grade of 3 represents an MIC of less than 1 mg/L); MIC grade, A. fumigatus 210 [8]: 3 (A grade of 3 represents an MIC of less than 1 mg/L); MIC grade, A. niger (Aspergillus niger [9]): 3 (A grade of 3 represents an MIC of less than 1 mg/L); MIC grade, A. fumigatus [10]: 3 (A grade of 3 represents an MIC of less than 1 mg/L); MIC grade, A. flavus (Aspergillus flavus [11]): 2 (A grade of 2 represents an MIC of from 1 to 10 mg/L); MIC grade, A. terreus 49 (Aspergillus terreus AT49 [12]): 2 (A grade of 2 represents an MIC of from 1 to 10 mg/L) |
| – | – | – | – | – | – | – | – | – | – | – | – | COC(=O)Cn1c(C)cc(-c2ccccc2)c1C(=O)C(=O)Nc1ccc(N2CCN(c3cc(C)cc(C)n3)CC2)cc1Cl [Example 98, (2-{2-Chloro-4-[4-(4,6-dimethyl-pyridin-2-yl)-piperazin-1-yl]-phenylaminooxalyl}-5-methyl-3-phenyl-pyrrol-1-yl)-acetic acid methyl ester] | MIC grade, A. terreus (Aspergillus terreus AT4 [1]): 3 (A grade of 3 represents an MIC of less than 1 mg/L); MIC grade, A. fumigatus 210 [2]: 3 (A grade of 3 represents an MIC of less than 1 mg/L); MIC grade, A. niger (Aspergillus niger [3]): 3 (A grade of 3 represents an MIC of less than 1 mg/L); MIC grade, A. fumigatus [4]: 3 (A grade of 3 represents an MIC of less than 1 mg/L); MIC grade, A. flavus (Aspergillus flavus [5]): 1 (a grade of 1 represents an MIC of greater than 10 mg/L); MIC grade, A. terreus 49 (Aspergillus terreus AT49 [6]): 3 (A grade of 3 represents an MIC of less than 1 mg/L); MIC grade, A. terreus (Aspergillus terreus AT4 [7]): 3 (A grade of 3 represents an MIC of less than 1 mg/L); MIC grade, A. fumigatus 210 [8]: 3 (A grade of 3 represents an MIC of less than 1 mg/L); MIC grade, A. niger (Aspergillus niger [9]): 3 (A grade of 3 represents an MIC of less than 1 mg/L); MIC grade, A. fumigatus [10]: 3 (A grade of 3 represents an MIC of less than 1 mg/L); MIC grade, A. flavus (Aspergillus flavus [11]): 2 (A grade of 2 represents an MIC of from 1 to 10 mg/L); MIC grade, A. terreus 49 (Aspergillus terreus AT49 [12]): 3 (A grade of 3 represents an MIC of less than 1 mg/L) |
| > 10 | < 1 | > 10 | 1 to 10 (≈ 1.71 to 17.1 µM) | > 10 | > 10 | > 10 | > 10 | > 10 | > 10 | > 10 | > 10 | Cc1cc(C)nc(N2CCN(c3ccc(NC(=O)C(=O)c4c(-c5ccccc5)cc(C)n4Cc4ccccc4)cc3)CC2)c1 [Example 48, 2-(1-Benzyl-5-methyl-3-phenyl-1H-pyrrol-2-yl)-N-{4-[4-(4,6-dimethyl-pyridin-2-yl)-piperazin-1-yl]-phenyl}-2-oxo-acetamide] | – |
| < 1 | < 1 | < 1 | < 1 | < 1 | < 1 | < 1 | < 1 | < 1 | < 1 | < 1 | < 1 | Cc1cc(C)nc(N2CCN(c3ccc(NC(=O)C(=O)c4c(-c5ccccc5)cc(C)n4C)c(Cl)c3)CC2)c1 [Example 21, N-{2-Chloro-4-[4-(4,6-dimethyl-pyridin-2-yl)-piperazin-1-yl]-phenyl}-2-(1,5-dimethyl-3-phenyl-1H-pyrrol-2-yl)-2-oxo-acetamide] | – |
| < 1 | 1 to 10 (≈ 2.71 to 27.1 µM) | 1 to 10 (≈ 2.71 to 27.1 µM) | 1 to 10 (≈ 2.71 to 27.1 µM) | < 1 | < 1 | < 1 | 1 to 10 (≈ 2.71 to 27.1 µM) | 1 to 10 (≈ 2.71 to 27.1 µM) | 1 to 10 (≈ 2.71 to 27.1 µM) | 1 to 10 (≈ 2.71 to 27.1 µM) | < 1 | Cc1cc(-c2ccccc2)c(C(=O)C(=O)Nc2cccc3cccnc23)n1C [Example 31, 2-(1,5-Dimethyl-3-phenyl-1H-pyrrol-2-yl)-2-oxo-N-quinolin-8-yl-acetamide] | – |
| < 1 | < 1 | < 1 | < 1 | < 1 | < 1 | < 1 | < 1 | < 1 | < 1 | < 1 | < 1 | Cc1cc(C)nc(N2CCN(c3ccc(NC(=O)C(=O)c4c(-c5ccccc5)cc(C)n4C)cc3C)CC2)c1 [Example 51, 2-(1,5-Dimethyl-3-phenyl-1H-pyrrol-2-yl)-N-{4-[4-(4,6-dimethyl-pyridin-2-yl)-piperazin-1-yl]-3-methyl-phenyl}-2-oxo-acetamide] | – |
| < 1 | < 1 | < 1 | < 1 | < 1 | < 1 | < 1 | 1 to 10 (≈ 2.71 to 27.1 µM) | 1 to 10 (≈ 2.71 to 27.1 µM) | 1 to 10 (≈ 2.71 to 27.1 µM) | < 1 | < 1 | Cc1cc(-c2ccccc2)c(C(=O)C(=O)Nc2cnc3ccccc3c2)n1C [Example 37, 2-(1,5-Dimethyl-3-phenyl-1H-pyrrol-2-yl)-2-oxo-N-quinolin-3-yl-acetamide] | – |
| 1 to 10 (≈ 1.76 to 17.6 µM) | 1 to 10 (≈ 1.76 to 17.6 µM) | 1 to 10 (≈ 1.76 to 17.6 µM) | 1 to 10 (≈ 1.76 to 17.6 µM) | 1 to 10 (≈ 1.76 to 17.6 µM) | 1 to 10 (≈ 1.76 to 17.6 µM) | 1 to 10 (≈ 1.76 to 17.6 µM) | > 10 | 1 to 10 (≈ 1.76 to 17.6 µM) | > 10 | > 10 | 1 to 10 (≈ 1.76 to 17.6 µM) | COCc1cc(-c2ccccc2)c(C(=O)C(=O)Nc2ccc(N3CCN(c4cc(C)cc(C)n4)CC3)cc2)n1COC [Example 131, 2-(1,5-Bis-methoxymethyl-3-phenyl-1H-pyrrol-2-yl)-N-{4-[4-(4,6-dimethyl-pyridin-2-yl)-piperazine-1-yl]-phenyl}-2-oxo-acetamide] | – |
| 1 to 10 (≈ 1.77 to 17.7 µM) | < 1 | 1 to 10 (≈ 1.77 to 17.7 µM) | < 1 | 1 to 10 (≈ 1.77 to 17.7 µM) | < 1 | > 10 | 1 to 10 (≈ 1.77 to 17.7 µM) | 1 to 10 (≈ 1.77 to 17.7 µM) | < 1 | > 10 | > 10 | CCc1cc(-c2ccccc2)c(C(=O)C(=O)Nc2ccc(N3CCN(c4cc(C)cc(C)n4)CC3)cc2)n1CCOC [Example 54, N-{4-[4-(4,6-Dimethyl-pyridin-2-yl)-piperazin-1-yl]-phenyl}-2-[5-ethyl-1-(2-methoxy-ethyl)-3-phenyl-1H-pyrrol-2-yl]-2-oxo-acetamide] | – |
| > 10 | > 10 | > 10 | > 10 | > 10 | > 10 | > 10 | > 10 | > 10 | > 10 | > 10 | > 10 | COCCn1c(C)cc(-c2ccccc2)c1C(=O)C(=O)Nc1cccc2ncccc12 [Example 29, 2-[1-(2-Methoxy-ethyl)-5-methyl-3-phenyl-1H-pyrrol-2-yl]-2-oxo-N-quinolin-5-yl-acetamide] | – |
| < 1 | < 1 | < 1 | < 1 | < 1 | < 1 | 1 to 10 (≈ 1.71 to 17.1 µM) | < 1 | < 1 | < 1 | 1 to 10 (≈ 1.71 to 17.1 µM) | > 10 | COCCn1c(C)cc(-c2ccccc2)c1C(=O)C(=O)Nc1ccc(N2CCN(c3cc(C)cc(C)n3)CC2)c(Cl)c1 [Example 24, N-{3-Chloro-4-[4-(4,6-dimethyl-pyridin-2-yl)-piperazin-1-yl]-phenyl}-2-[1-(2-methoxy-ethyl)-5-methyl-3-phenyl-1H-pyrrol-2-yl]-2-oxo-acetamide] | – |

— patent US8993574B2, “Pyrrole antifungal agents” (F2G Ltd, priority 2008, dated 2015)
